Laboratory results published in patent US11040031B2, “Pyrazole derivatives as MALT1 inhibitors” (Janssen Pharmaceutica NV, priority 2018, dated 2021).
Where two headings read alike, the source gives them in different places.

Experiments:
[1] = system: Secretion of IL10 by OCI-LY3 ABC-DLBCL cells; test: Human IL10 Mesoscale assay (OCI-LY3); type: cell-based; conditions: read-out: Human IL10 Mesoscale assay (OCI-LY3)
Protocol: (§1) NFKB signaling regulates the secretion of multiple cytokines, including IL6 and IL10. Secretion of the cytokines IL6 and IL10 by TMD8 or OCI-LY3 ABC-DLBCL cells was measured using a mesoscale assay.
(§2) Cell passage number should not exceed 30. Cells should be kept between 0.5-2.5 million cells per mL during culturing and cells should be supplemented every 2-3 days with fresh 50 µM beta-mercaptoenthanol. No beta-mercaptoethanol was used during the mesoscale assay.
(§3) DMSO control wells were used to determine the maximum signal (High Control (HC)). […] Compounds and cells were incubated for 24 h at 37° C. and 5% CO2 (assay volume is 150 μL). After 24 h of incubation 50 μL of the supernatant was transferred to a MSD plate (V-Plex Proinflammation Panel 1 (human) kit, Mesoscale (MSD)) and incubated for 2 h with vigorous shaking (600 rpm) at room temperature. Following incubation, plates were washed 3× with PBS+0.05% Tween-20 and 25 μL detection antibody solution (IL6 & IL10 antibodies in diluent 3 (MSD)) was added per well followed by 2 h of incubation with vigorous shaking (600 rpm) at room temperature. After 3× washes with PBS+0.05% Tween-20, plates were incubated with 150 μL 2× Read Buffer T and read on SECTOR imager.

[2] = system: Secretion of IL6 by OCI-LY3 ABC-DLBCL cells; test: Human IL6 Mesoscale assay (OCI-LY3); type: cell-based; conditions: read-out: Human IL6 Mesoscale assay (OCI-LY3)
Protocol: as §1, §2, §3

[3] = molecular target: T1, full-length MALT1 protein (Strep-MALT1(1-824)-His) (Homo sapiens, UniProt Q9UDY8); test: biochemical;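 further: fluorogenic LRSR-AMC substrate cleavage by MALT1, 50 min compound preincubation then 4 h reaction at RT, 11-point dilution from 30 µM, scaled between enzyme-free and untreated enzyme controls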
T1 sequence (Q9UDY8 1-824): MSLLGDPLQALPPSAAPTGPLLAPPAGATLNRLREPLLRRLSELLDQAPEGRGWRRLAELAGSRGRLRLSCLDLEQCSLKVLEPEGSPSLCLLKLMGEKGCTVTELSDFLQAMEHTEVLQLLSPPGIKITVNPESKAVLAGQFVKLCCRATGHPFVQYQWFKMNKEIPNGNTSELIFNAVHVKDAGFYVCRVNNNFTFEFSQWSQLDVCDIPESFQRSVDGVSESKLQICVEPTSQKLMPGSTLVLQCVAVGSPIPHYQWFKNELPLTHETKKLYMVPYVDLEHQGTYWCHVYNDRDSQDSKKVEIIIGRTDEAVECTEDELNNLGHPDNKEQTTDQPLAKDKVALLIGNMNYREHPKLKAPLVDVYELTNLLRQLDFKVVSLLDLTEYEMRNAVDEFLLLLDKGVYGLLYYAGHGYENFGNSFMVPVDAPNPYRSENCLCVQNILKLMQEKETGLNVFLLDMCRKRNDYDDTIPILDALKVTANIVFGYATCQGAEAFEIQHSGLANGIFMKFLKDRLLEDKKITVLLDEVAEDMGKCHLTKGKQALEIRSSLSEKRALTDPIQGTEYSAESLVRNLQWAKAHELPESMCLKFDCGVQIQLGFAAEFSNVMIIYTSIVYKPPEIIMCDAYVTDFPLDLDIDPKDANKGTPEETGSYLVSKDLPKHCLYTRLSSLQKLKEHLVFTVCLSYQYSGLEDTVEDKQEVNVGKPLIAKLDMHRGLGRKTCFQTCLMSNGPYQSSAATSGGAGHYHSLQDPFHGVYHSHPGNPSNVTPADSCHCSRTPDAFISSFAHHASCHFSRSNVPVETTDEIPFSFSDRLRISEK

[4] = OCI-LY3 cells, 24 h incubation, supernatant, MSD V-Plex

IC50 ([1]; OCI-Ly3, 24 h) | IC50 ([2]; OCI-Ly3, 24 h) | IC50 [3] | IC50 [1, 4] | IC50 [2, 4] | Compound
 |  | 58 nM | 123 nM | 132 nM | N#Cc1ccc(-n2ncc(C(=O)Nc3cnc(-n4nccn4)c(Cl)c3)c2C(F)(F)F)nc1N [Cpd 140, 1-(6-amino-5-cyanopyridin-2-yl)-N-(5-chloro-6-(2H-1,2,3-triazol-2-yl)pyridin-3-yl)-5-(trifluoromethyl)-1H-pyrazole-4-carboxamide]
 |  | 100 nM | 407 nM | 427 nM | Cc1ccc(N)nc1-n1ncc(C(=O)Nc2cnc(-n3nccn3)c(C#N)c2)c1C(F)(F)F [Cpd 141, 1-(6-amino-3-methylpyridin-2-yl)-N-(5-cyano-6-(2H-1,2,3-triazol-2-yl)pyridin-3-yl)-5-(trifluoromethyl)-1H-pyrazole-4-carboxamide]
 |  | 22 nM | 355 nM | 676 nM | Cc1cnc(N)cc1-n1ncc(C(=O)Nc2cnc(-n3nccn3)c(C#N)c2)c1C(F)(F)F [Cpd 142, 1-(2-amino-5-methylpyridin-4-yl)-N-(5-cyano-6-(2H-1,2,3-triazol-2-yl)pyridin-3-yl)-5-(trifluoromethyl)-1H-pyrazole-4-carboxamide]
617 nM | 1050 nM | 110 nM |  |  | Cc1c(-n2ncc(C(=O)Nc3cnc(-n4nccn4)c(C#N)c3)c2C(F)(F)F)ccnc1N [Cpd 143, 1-(2-amino-3-methylpyridin-4-yl)-N-(5-cyano-6-(2H-1,2,3-triazol-2-yl)pyridin-3-yl)-5-(trifluoromethyl)-1H-pyrazole-4-carboxamide]
26 nM | 46 nM | 35 nM |  |  | N#Cc1cc(NC(=O)c2cnn(-c3ccc(Cl)c(N)n3)c2C(F)(F)F)cnc1-n1nccn1 [Cpd 144, 1-(6-amino-5-chloropyridin-2-yl)-N-(5-cyano-6-(2H-1,2,3-triazol-2-yl)pyridin-3-yl)-5-(trifluoromethyl)-1H-pyrazole-4-carboxamide]
18 nM | 17 nM | 32 nM |  |  | Cc1cc(F)c(N)nc1-n1ncc(C(=O)Nc2cnc(-n3nccn3)c(C#N)c2)c1C(F)(F)F [Cpd 145, 1-(6-amino-5-fluoro-3-methylpyridin-2-yl)-N-(5-cyano-6-(2H-1,2,3-triazol-2-yl)pyridin-3-yl)-5-(trifluoromethyl)-1H-pyrazole-4-carboxamide]
158 nM | 195 nM | 107 nM |  |  | Cc1cc(F)c(N)nc1-n1ncc(C(=O)Nc2cnc(-n3nccn3)c(Cl)c2)c1C(F)(F)F [Cpd 146, 1-(6-amino-5-fluoro-3-methylpyridin-2-yl)-N-(5-chloro-6-(2H-1,2,3-triazol-2-yl)pyridin-3-yl)-5-(trifluoromethyl)-1H-pyrazole-4-carboxamide]
40 nM | 52 nM | 69 nM |  |  | Nc1nc(-n2ncc(C(=O)Nc3cnc(-n4nccn4)c(C(F)(F)F)c3)c2C(F)(F)F)ccc1F [Cpd 147, N-(6-(2H-1,2,3-triazol-2-yl)-5-(trifluoromethyl)pyridin-3-yl)-1-(6-amino-5-fluoropyridin-2-yl)-5-(trifluoromethyl)-1H-pyrazole-4-carboxamide]
263 nM | 398 nM | 39 nM |  |  | N#Cc1cc(NC(=O)c2cnn(-c3cc(N)ncc3Cl)c2C(F)(F)F)cnc1-n1nccn1 [Cpd 148, 1-(2-amino-5-chloropyridin-4-yl)-N-(5-cyano-6-(2H-1,2,3-triazol-2-yl)pyridin-3-yl)-5-(trifluoromethyl)-1H-pyrazole-4-carboxamide]
 |  | 85 nM | 155 nM | 166 nM | Nc1cc(-n2ncc(C(=O)Nc3cnc(-n4nccn4)c(Cl)c3)c2C(F)(F)F)c(Cl)cn1 [Cpd 149, 1-(2-amino-5-chloropyridin-4-yl)-N-(5-chloro-6-(2H-1,2,3-triazol-2-yl)pyridin-3-yl)-5-(trifluoromethyl)-1H-pyrazole-4-carboxamide]
 |  | 100 nM | 204 nM | 269 nM | CNc1nc(-n2ncc(C(=O)Nc3cnc(-n4nccn4)c(C#N)c3)c2C(F)(F)F)ccc1F [Cpd 150, N-(5-cyano-6-(2H-1,2,3-triazol-2-yl)pyridin-3-yl)-1-(5-fluoro-6-(methylamino)pyridin-2-yl)-5-(trifluoromethyl)-1H-pyrazole-4-carboxamide]

Second part, the compound before the results:

Compound | IC50 ([1]; OCI-Ly3, 24 h) | IC50 ([2]; OCI-Ly3, 24 h) | IC50 [3] | IC50 [1, 4] | IC50 [2, 4]
N#Cc1cc(NC(=O)c2cnn(-c3c(Cl)cc(F)cc3Cl)c2C(F)(F)F)cnc1-n1nccn1 [Cpd 102, N-(5-cyano-6-(2H-1,2,3-triazol-2-yl)pyridin-3-yl)-1-(2,6-dichloro-4-fluorophenyl)-5-(trifluoromethyl)-1H-pyrazole-4-carboxamide] | 158 nM | 158 nM | 151 nM |  | 
O=C(Nc1cnc(-n2nccn2)c(Cl)c1)c1cnn(-c2ccc(F)cc2Cl)c1C(F)(F)F [Cpd 107, 1-(2-chloro-4-fluorophenyl)-N-(5-chloro-6-(2H-1,2,3-triazol-2-yl)pyridin-3-yl)-5-(trifluoromethyl)-1H-pyrazole-4-carboxamide] |  |  | 141 nM | 112 nM | 158 nM
Cc1cc(F)cnc1-n1ncc(C(=O)Nc2cnc(-n3nccn3)c(C#N)c2)c1C(F)(F)F [Cpd 113, N-(5-cyano-6-(2H-1,2,3-triazol-2-yl)pyridin-3-yl)-1-(5-fluoro-3-methylpyridin-2-yl)-5-(trifluoromethyl)-1H-pyrazole-4-carboxamide] |  |  | 158 nM | 324 nM | 372 nM
N#Cc1cc(NC(=O)c2cnn(-c3ccccc3Cl)c2C(F)(F)F)cnc1-n1nccn1 [Cpd 116, 1-(2-chlorophenyl)-N-(5-cyano-6-(2H-1,2,3-triazol-2-yl)pyridin-3-yl)-5-(trifluoromethyl)-1H-pyrazole-4-carboxamide] |  |  | 117 nM | 105 nM | 107 nM
Nc1ccnc(-n2ncc(C(=O)Nc3cnc(-n4nccn4)c(Cl)c3)c2C(F)(F)F)c1Cl [Cpd 119, 1-(4-Amino-3-chloropyridin-2-yl)-N-(5-chloro-6-(2H-1,2,3-triazol-2-yl)pyridin-3-yl)-5-(trifluoromethyl)-1H-pyrazole-4-carboxamide] |  |  | 209 nM | 148 nM | 282 nM
Cc1cc(C#N)ccc1-n1ncc(C(=O)Nc2cnc(-n3nccn3)c(C#N)c2)c1C(F)(F)F [Cpd 126, 1-(4-cyano-2-methylphenyl)-N-(5-cyano-6-(2H-1,2,3-triazol-2-yl)pyridin-3-yl)-5-(trifluoromethyl)-1H-pyrazole-4-carboxamide] | 68 nM | 76 nM | 38 nM |  | 
CSc1ccccc1-n1ncc(C(=O)Nc2cnc(-n3nccn3)c(Cl)c2)c1C(F)(F)F [Cpd 137, N-(5-chloro-6-(2H-1,2,3-triazol-2-yl)pyridin-3-yl)-1-(2-(methylthio)phenyl)-5-(trifluoromethyl)-1H-pyrazole-4-carboxamide] |  |  | 151 nM | 100 nM | 123 nM
N#Cc1ccc(-n2ncc(C(=O)Nc3cnc(-n4nccn4)c(C#N)c3)c2C(F)(F)F)nc1N [Cpd 139, 1-(6-Amino-5-cyanopyridin-2-yl)-N-(5-cyano-6-(2H-1,2,3-triazol-2-yl)pyridin-3-yl)-5-(trifluoromethyl)-1H-pyrazole-4-carboxamide] |  |  | 26 nM | 76 nM | 74 nM
